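Cells were grown in 96-well plates and exposed to each compound for 48 hours at five concentrations; endpoints were interpolated linearly between bracketing concentrations, or set to the highest concentration if not reached. At the GI50, growth is halved.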 The source made the active and inactive calls. Rule as the data show it: active = GI50 up to about 1.1 µM and inactive = higher.
Tests used:
Test in all cases: inhibition of tumour cell growth, NCI panel, 48 h
DU-145 = tested on: DU-145
HCC 2998 = tested on: HCC 2998
HOP-62 = tested on: HOP-62
HT-29 = tested on: HT-29
Hs-578T = tested on: Hs-578T
KM12 = tested on: KM12
NCI-H460 = tested on: NCI-H460
OVCAR-5 = tested on: OVCAR-5
OVCAR-8 = tested on: OVCAR-8
SF-295 = tested on: SF-295
SK-MEL-2 = tested on: SK-MEL-2
SK-MEL-5 = tested on: SK-MEL-5
SN12C = tested on: SN12C
T47D = tested on: T47D
TK-10 = tested on: TK-10
MOLT-4 = tested on: MOLT-4
OVCAR-4 = tested on: OVCAR-4
SNB-19 = tested on: SNB-19
RPMI-8226 = tested on: RPMI-8226
SR = tested on: SR

Structure (SMILES)	GI50 (DU-145)	GI50 (HCC 2998)	GI50 (HOP-62)	GI50 (HT-29)	GI50 (Hs-578T)	GI50 (KM12)	GI50 (NCI-H460)	GI50 (OVCAR-5)	GI50 (OVCAR-8)	GI50 (SF-295)	GI50 (SK-MEL-2)	GI50 (SK-MEL-5)	GI50 (SN12C)	GI50 (T47D)	GI50 (TK-10)	GI50 (MOLT-4)	GI50 (OVCAR-4)	GI50 (SNB-19)	GI50 (RPMI-8226)	GI50 (SR)
CC(=C\c1ccccc1)/C=C(\C#N)C(N)=O	> 10 µM (inactive)	> 10 µM (inactive)	> 10 µM (inactive)	> 10 µM (inactive)	> 10 µM (inactive)	> 10 µM (inactive)	> 10 µM (inactive)	> 10 µM (inactive)	> 10 µM (inactive)	> 10 µM (inactive)	> 10 µM (inactive)	> 10 µM (inactive)	> 10 µM (inactive)	> 10 µM (inactive)	> 10 µM (inactive)					
Cc1[nH]n(-c2nc3c(c(=O)[nH]2)CCCC3)c(=O)c1CCO	> 100 µM (inactive)	> 100 µM (inactive)	> 100 µM (inactive)	> 100 µM (inactive)	> 100 µM (inactive)	> 100 µM (inactive)	> 100 µM (inactive)	> 100 µM (inactive)	> 100 µM (inactive)	> 100 µM (inactive)	> 100 µM (inactive)	> 100 µM (inactive)	> 100 µM (inactive)	> 100 µM (inactive)	> 100 µM (inactive)	> 100 µM (inactive)	> 100 µM (inactive)	> 100 µM (inactive)		
Cc1nc2c(=O)[nH]c3ccc(Cl)cc3c2o1		> 100 µM (inactive)	> 100 µM (inactive)	> 100 µM (inactive)	> 100 µM (inactive)	> 100 µM (inactive)	> 100 µM (inactive)	> 100 µM (inactive)	> 100 µM (inactive)	> 100 µM (inactive)	> 100 µM (inactive)	> 100 µM (inactive)	> 100 µM (inactive)	> 100 µM (inactive)	> 100 µM (inactive)	> 100 µM (inactive)	> 100 µM (inactive)	> 100 µM (inactive)	> 100 µM (inactive)	> 100 µM (inactive)
COc1cccc2c1C(=O)c1c(O)c3c(c(O)c1C2=O)C[C@@](O)(C(C)=O)C[C@@H]3OC1OC(C)C(O)C(N)C1Br (stereo partly specified)	0.0475 µM (active)	0.111 µM (active)	0.0147 µM (active)	0.152 µM (active)		0.14 µM (active)	0.001 µM (active)	0.28 µM (active)	0.0557 µM (active)	0.0442 µM (active)	0.267 µM (active)	0.0689 µM (active)	0.0281 µM (active)	0.0585 µM (active)	0.158 µM (active)	0.001 µM (active)	0.185 µM (active)	0.0412 µM (active)	0.0156 µM (active)	0.00497 µM (active)
Cc1cc(=O)oc2c3c(ccc12)OC(c1ccc(Br)cc1)CC3=O (stereo unspecified)		14.6 µM (inactive)	7.69 µM (inactive)	14.7 µM (inactive)	2.56 µM (inactive)	13.9 µM (inactive)	15 µM (inactive)	16.3 µM (inactive)	5.86 µM (inactive)	10.7 µM (inactive)	11.3 µM (inactive)	11.6 µM (inactive)	5.42 µM (inactive)	0.177 µM (active)	13.7 µM (inactive)	1.79 µM (inactive)	26.5 µM (inactive)	5.31 µM (inactive)	4.04 µM (inactive)	3.23 µM (inactive)
C=C1C[C@@H](O)[C@@H](Br)C(C)(C)[C@@]12C=CC(O)(CBr)CC2 (stereo partly specified)	> 100 µM (inactive)		> 100 µM (inactive)	47.6 µM (inactive)	45.6 µM (inactive)	1.6 µM (inactive)	66.4 µM (inactive)	13.7 µM (inactive)	> 100 µM (inactive)	> 100 µM (inactive)	86.3 µM (inactive)	76.7 µM (inactive)	> 100 µM (inactive)	> 100 µM (inactive)	> 100 µM (inactive)	21.4 µM (inactive)	> 100 µM (inactive)	88.9 µM (inactive)	24.9 µM (inactive)	14.8 µM (inactive)
O=C1C=C2CC[C@H]3[C@@H]4CC[C@H](Oc5c6ccccc6nc6ccccc56)[C@H]4CC[C@@H]3[C@H]2CC1	87.7 µM (inactive)		57.1 µM (inactive)	36.7 µM (inactive)	26.8 µM (inactive)	39.6 µM (inactive)	35.6 µM (inactive)	> 100 µM (inactive)	22.9 µM (inactive)	52.4 µM (inactive)	40 µM (inactive)	22.5 µM (inactive)	55.3 µM (inactive)	43.1 µM (inactive)	47.8 µM (inactive)		52.7 µM (inactive)	> 100 µM (inactive)		
COC(=O)[C@H](Cc1ccccc1)NC(=O)[C@H](Cc1ccccc1)NC(=O)[C@@H]1CCCN1C(=O)N[C@H]1C2C=CC(C2)C1C(=O)N1CCC[C@H]1C(=O)N[C@@H](C)C(=O)N[C@H](C(=O)OC)C(C)C (stereo partly specified)	> 100 µM (inactive)		> 100 µM (inactive)	> 100 µM (inactive)	59.6 µM (inactive)	> 100 µM (inactive)	> 100 µM (inactive)	> 100 µM (inactive)	> 100 µM (inactive)	30.8 µM (inactive)		> 100 µM (inactive)	> 100 µM (inactive)	60.1 µM (inactive)	65.5 µM (inactive)	29.4 µM (inactive)	> 100 µM (inactive)	> 100 µM (inactive)		49.7 µM (inactive)
CCN(CC)C(=S)SC [METHYLDIETHYL CARBAMODITHIOATE]	> 100 µM (inactive)	> 100 µM (inactive)	> 100 µM (inactive)	> 100 µM (inactive)	> 100 µM (inactive)		> 100 µM (inactive)	> 100 µM (inactive)	> 100 µM (inactive)	> 100 µM (inactive)	> 100 µM (inactive)	> 100 µM (inactive)	> 100 µM (inactive)	> 100 µM (inactive)	> 100 µM (inactive)	> 100 µM (inactive)		> 100 µM (inactive)	> 100 µM (inactive)	
O=C1Nc2ccc(S(=O)(=O)O)cc2/C1=N/Nc1ccccc1[N+](=O)[O-]	> 100 µM (inactive)		> 100 µM (inactive)	> 100 µM (inactive)	> 100 µM (inactive)	> 100 µM (inactive)	> 100 µM (inactive)	42.9 µM (inactive)	> 100 µM (inactive)	> 100 µM (inactive)	> 100 µM (inactive)	> 100 µM (inactive)	> 100 µM (inactive)	> 100 µM (inactive)	> 100 µM (inactive)	> 100 µM (inactive)	> 100 µM (inactive)	> 100 µM (inactive)	> 100 µM (inactive)	> 100 µM (inactive)
OCc1cn(Cc2ccccc2)c2ccccc12	> 21.6 µM (inactive)		5.32 µM (inactive)	1.71 µM (inactive)	12.9 µM (inactive)	> 48 µM (inactive)	0.135 µM (active)	0.375 µM (active)	13 µM (inactive)		2.56 µM (inactive)	25.7 µM (inactive)	26 µM (inactive)	< 0.0411 µM (active)	< 0.0359 µM (active)	> 47.3 µM (inactive)	0.0378 µM (active)	> 64.6 µM (inactive)	2.16 µM (inactive)	12.4 µM (inactive)
O=c1/c(=C/c2ccc(-c3ccc(Cl)cc3Cl)o2)sc2n1[C@@H](c1ccc(Cl)cc1)C=C(c1cc(F)c(Cl)cc1Cl)N=2	65.2 µM (inactive)	12.8 µM (inactive)	10.6 µM (inactive)	39.8 µM (inactive)	29.6 µM (inactive)	87.5 µM (inactive)	60.3 µM (inactive)	> 100 µM (inactive)	45.7 µM (inactive)	53.2 µM (inactive)	40.5 µM (inactive)	46.5 µM (inactive)	76.4 µM (inactive)	19.2 µM (inactive)	13.4 µM (inactive)	22.4 µM (inactive)	41.9 µM (inactive)	35.6 µM (inactive)	31.1 µM (inactive)	
C=CCOC(=O)CC[C@H](NC(=O)[C@@H](CCC(F)(F)F)Cc1ccc(O)cc1)C(=O)OCC=C			> 100 µM (inactive)	> 100 µM (inactive)	36.7 µM (inactive)	> 100 µM (inactive)		> 100 µM (inactive)	> 100 µM (inactive)	> 100 µM (inactive)		18.5 µM (inactive)	45.4 µM (inactive)	20.6 µM (inactive)		27.7 µM (inactive)	65.2 µM (inactive)	> 100 µM (inactive)	30.4 µM (inactive)	32.5 µM (inactive)
CC1COC(c2cn[nH]c2C(N)=O)C1O (stereo unspecified)	> 100 µM (inactive)		> 100 µM (inactive)	> 100 µM (inactive)	> 100 µM (inactive)	> 100 µM (inactive)	> 100 µM (inactive)	> 100 µM (inactive)	> 100 µM (inactive)	> 100 µM (inactive)	> 100 µM (inactive)	> 100 µM (inactive)	> 100 µM (inactive)	> 100 µM (inactive)	> 100 µM (inactive)	> 100 µM (inactive)	> 100 µM (inactive)	> 100 µM (inactive)	> 100 µM (inactive)	> 100 µM (inactive)
CCOC(=O)Nc1nn(C)/c(=N/Cc2ccccc2)s1	> 100 µM (inactive)		> 100 µM (inactive)		> 100 µM (inactive)	> 100 µM (inactive)	> 100 µM (inactive)	> 100 µM (inactive)		> 100 µM (inactive)	> 100 µM (inactive)	> 100 µM (inactive)	> 100 µM (inactive)	> 100 µM (inactive)	> 100 µM (inactive)	> 100 µM (inactive)	> 100 µM (inactive)	> 100 µM (inactive)	> 100 µM (inactive)	> 100 µM (inactive)
